Counter-ions that a name gives are not always drawn. Like-named read-outs stand apart in the source and are kept apart here.
What was measured:
Type in all cases: physicochemical
[1] = Aqueous solubility, 24 hours equilibration in water at 25° C., HPLC, pH and XRPD of residue; conditions: water
Experimental: Briefly, quantitative high performance liquid chromatography (HPLC) was used to determine the aqueous solubility. X-ray powder diffraction spectrometry was also used to characterize the thermodynamic solubility of the mono-hydrochloride and di-hydrochloride salts of MN-029. After a 24 hours equilibration of each salt form in water at 25° C., the residual solid material was separated from the aqueous solution and the pH of the aqueous sample was measured. The XRPD spectrum of the solid residue obtained from the MN-029 di-hydrochloride vial indicated the solid material to be the mono-hydrochloride salt of MN-029. […] Table 4 illustrates the data from aqueous solubility studies of the mono-hydrochloride and di-hydrochloride salts of MN-029.
The suspension was equilibrated at 25° C. for 24 hours then pH was measured. The suspension was filtered and the filtrate was diluted by a factor of 101. Quantization by HPLC with a reference to a standard solution. Different volumes of the standard, diluted, and undiluted solution were injected and solubility was calculated by integration of the peak found at the same time as the principle peak in the standard solution.

[2] = Solubility in citrate buffer at different pH values (1M sodium hydroxide added), HPLC; conditions: for solubility: aqueous buffer, thermodynamic from solid, read-out: Solubility (free base equivalent)
Experimental: To investigate the solubility of MN-029 di-hydrochloride in citrate buffer, the di-hydrochloride salt was added in multiple small portions to 10 milliliters of an aqueous solution of citric acid (3.87 mg/ml). When no more solid dissolved, that is, when saturation was achieved, the solution in the vial was allowed to equilibrate for approximately 24 hours with shaking at 25° C. […] The pH of the saturated solution was measured prior to filtration of undissolved solid. The filtrate obtained was equally divided into five vials.
To the filtrate in each of the vials was added different volumes of 1M sodium hydroxide so as to increase the pH of the filtrate to a predetermined pH value. It was observed that the addition of base caused solid to precipitate out of solution. The reaction mixture is allowed to equilibrate with shaking at 25° C., following which the solid residue is filtered and the filtrate obtained is analyzed for presence of dissolved compound by HPLC.

[3] = Solubility as a function of pH in buffers without and with 15% HPBCD; conditions: thermodynamic from solid
Experimental: Buffers were prepared to cover a pH range of 2 to 7. Approximately 5 to 10 milligrams of drug was weighed into an HPLC vial to which 1.00 mL of the appropriate buffer was added. The solutions were vortexed briefly and were then shaken for five days on an orbital shaker. The prolonged shaking was carried out because slow equilibration had been observed during the initial formulation studies with different salt forms of MN-029.
Buffers with 15% HPBCD were prepared from the previous buffers. One and a half grams of HPBCD was weighed into each of several 10 mL volumetric flasks. HPBCD was dissolved in and diluted to volume with the appropriate buffer. 15 to 20 milligrams of MN-029 di-hydrochloride was weighed out into an tared HPLC vial. To the di-hydrochloride salt was added 1.00 mL of each buffer and the solution was vortexed briefly to dissolve the salt. The solutions were placed on an orbital shaker for five days. Solubility results are shown in Table 10, and the pH solubility profile for the drug in the absence of HPBCD is shown in FIG. 8.

[4] = Gravimetric Vapor Sorption (GVS) hygroscopicity; conditions: for Weight change: GVS
Text: Moreover, neither the mono-hydrochloride salt or the di-hydrochloride salt of MN-029 show any significant change in phase as measured by XRPD analysis of samples subjected to GVS analysis (see FIG. 6).

[5] = Osmolality and pH of solutions in water and in 15% HPBCD
Experimental: Solutions were prepared by weighing MN-029 di-hydrochloride salt into 10-mL volumetric flasks. The drug was dissolved in water with vortexing, and samples were diluted to volume with water. Solutions of 1, 2, 4, 6 and 8 mg/mL were made according to this procedure. The samples were allowed to sit at room temperature overnight prior to pH and osmolality measurements.
All samples were clear except for the 8 mg/mL solution, which was initially clear but precipitated upon sitting overnight. As shown in Table 10 and in FIGS. 9 and 10, the pH declined in an almost linear fashion with increasing drug concentration while osmolality increased linearly with concentration up to 6 mg/mL.
The pH and osmolality were also measured for solutions of MN-029 di-hydrochloride salt in a 15% solution of hydroxypropyl-β-cyclodextrin (HPBCD). Solutions of 5, 10, 15, 20, and 30 mg/mL were prepared for analysis. The solutions were made by weighing out an appropriate amount of the compound into HPLC vials to which 1.00 mL of 15% HPBCD was added with brief vortexing. Although solutions were clear upon mixing, they were shaken overnight on an orbital shaker to assure equilibration. All solutions remained clear after overnight shaking. HPBCD at a concentration of 15% was sufficient to solubilize MN-029 di-hydrochloride up to a concentration of 30 mg/mL. As shown in Table 11 and in FIGS. 11 and 12, the pH decreased almost linearly with increasing MN-029 di-hydrochloride concentration, while the osmolality increased linearly. The dotted lines on the pH graphs (FIGS. 9 and 11) connect the data points for clarity while the dotted lines on the osmolality graphs (FIGS. 10 and 12) are linear regressions of the data which are extrapolated back to zero drug concentration.

[6] = 25° C., equilibration for 24 hours
[7] = In Deionized Water, 8.00* mg/mL (precipitated upon sitting overnight)

Compound: COC(=O)Nc1nc2ccc(Sc3ccc(NC(=O)[C@H](C)N)cc3)cc2[nH]1 [MN-029 di-hydrochloride, carbamic acid N-[6-[[4-[[(2S)-2-amino-1-oxopropyl]amino]phenyl]thio]-1H-benzimidazol-2-yl]-methyl ester di-hydrochloride]
- fold more soluble in water than the mono-hydrochloride salt [1]: at least 3 fold
- Concentration of filtrate [1, 6]: 2.1 mg/ml of free base
- pH of saturated solution [1, 6]: 1.03
- fold less soluble at pH of about 5.5 than at pH of about 1.0 [2]: approximately 3000 fold
- solubility ([2]; pH 0.96, 25° C.): 2900 µg/mL
- solubility ([2]; pH 2.03, 25° C.): 1600 µg/mL
- solubility ([2]; pH 3.23, 25° C.): 39 µg/mL
- solubility ([2]; pH 5.57, 25° C.): < 1 µg/mL
- solubility at 5 days ([3]; aqueous buffer with 15% HPBCD, aqueous with cosolvent or surfactant or cyclodextrin, pH 2 to pH 6.9, in the presence of 15% HPBCD, read-out: solubility across the tested pH range): > 20000 µg/mL
- solubility at 5 days ([3]; aqueous buffer, pH 2, aqueous buffer, Without HPBCD, buffer pH 2.0, final pH 2.10, five days shaking, read-out: MN-029 Solubility): ~6000 µg/mL
- Weight change ([4]; 0% RH to 40% RH): +0.56 % w/w
- Weight change ([4]; 40% RH to 90% RH, listed as A063886, di-hydrochloride): Reversible uptake of +0.86% w/w
- Weight change ([4]; 40% RH to 90% RH, listed as MN029*2HCl, di-hydrochloride): +0.86 % w/w
- Weight change ([4]; 90% RH to 0% RH): −1.45 % w/w
- XRPD of residue after GVS ([4]; sample subjected to GVS): No significant difference
- solubility ([5]; 15% HPBCD solution, aqueous with cosolvent or surfactant or cyclodextrin, thermodynamic from solid, read-out: concentration solubilized by 15% HPBCD (solutions clear after overnight shaking)): ≥ 30000 µg/mL
- Osmolality ([5]; In 15% HPBCD, 5.35 mg/mL): 162 mOsm/kg
- pH ([5]; In 15% HPBCD, 5.35 mg/mL): 2.40
- Osmolality ([5]; In 15% HPBCD, 10.1 mg/mL): 182 mOsm/kg
- pH ([5]; In 15% HPBCD, 10.1 mg/mL): 2.21
- Osmolality ([5]; In 15% HPBCD, 15.3 mg/mL): 203 mOsm/kg
- pH ([5]; In 15% HPBCD, 15.3 mg/mL): 2.10
- Osmolality ([5]; In 15% HPBCD, 20.1 mg/mL): 221 mOsm/kg
- pH ([5]; In 15% HPBCD, 20.1 mg/mL): 2.04
- Osmolality ([5]; In 15% HPBCD, 30.1 mg/mL): 259 mOsm/kg
- pH ([5]; In 15% HPBCD, 30.1 mg/mL): 1.89
- Osmolality ([5]; In Deionized Water, 1.05 mg/mL): 6 mOsm/kg
- pH ([5]; In Deionized Water, 1.05 mg/mL): 3.25
- Osmolality ([5]; In Deionized Water, 2.04 mg/mL): 11 mOsm/kg
- pH ([5]; In Deionized Water, 2.04 mg/mL): 3.03
- Osmolality ([5]; In Deionized Water, 4.03 mg/mL): 22 mOsm/kg
- pH ([5]; In Deionized Water, 4.03 mg/mL): 2.82
- Osmolality ([5]; In Deionized Water, 5.96 mg/mL): 32 mOsm/kg
- pH ([5]; In Deionized Water, 5.96 mg/mL): 2.63
- Osmolality [5, 7]: 36* mOsm/kg
- pH [5, 7]: 1.90*
